How the values were obtained:
Assay type in all cases: in vivo, rat
[1] = tested on: Sprague Dawley rats; assay: NIS-L syndrome during Novel Water Maze (NWM) testing; conditions: for animals exhibiting NIS-L syndrome in NWM: tested PND 240; for animals displaying NIS-L syndrome during NWM testing: separate cohort, tested at 15 months
Procedure: To determine if the syndrome could be elicited by novel stimuli other than the MWM, all rats were tested in the Novel Water Maze (NWM) (Kant, G. J., Pharmacol. Biochem. […]
The Novel Water Maze (NWM) (Kant, G. J., Pharmacol. Biochem. Behav. [1993] 44:287-295) was selected based on its provision of a novel environment within which to evaluate the novelty impact on the precipitation of NIS-L. Animals were tested for 6 consecutive swim trials of 60 sec duration and scored for the presence or absence of NIS-L behaviours, by an observer blind to treatment during the 120 sec inter-trial period.

[2] = tested on: Sprague Dawley rats; assay: Daily assessment of pups until weaning for overt toxicity and weight gain; conditions: 5 or 20 μg/kg s.c. daily PND 8-PND 14
Procedure: Within 24 hr of birth, offspring of untimed-pregnant Sprague Dawley rats (Charles River Laboratories, St. Constant, PQ) were culled to 10 pups/litter (5 males and 5 females). From post-natal day (PND) 8-PND 14, pups were weighed and given a single daily injection (s.c.; 10 ml/kg) of either saline, or 5 or 20 μg/kg domoic acid (DOM). These doses are well below those normally required to induce toxicity in animals of this age (Doucette, T. A. et al., Neurotox. Teratol. [2003] 25:473-479, and Doucette, T. A., et al., Neurotox. Teratol. [2000] 22:863-869). Pups were assessed daily until weaning (on PND 22) for overt signs of toxicity, and all pre- and post-weaning testing was conducted with the experimenter blind to treatment. All procedures were conducted in accordance with the guidelines of the Canadian Council on Animal Care. […] Rats received no additional drug treatment after PND 14. On PND 120, animals were tested for spatial learning and memory in the Morris Water Maze (MWM) (8 trials/day over 6 consecutive days), using a standard reversal procedure (McNamara, R. K. and Skelton, R. W., Brain Res. Brain Res. Rev. [1993] 18:33-49). […]

[3] = tested on: Sprague Dawley rats; assay: NIS-L syndrome in open field arena; conditions: male rats; for animals displaying NIS-L in open field arena: tested PND 270
Procedure: To determine if the syndrome could be elicited by novel stimuli other than the MWM, all rats were tested in the Novel Water Maze (NWM) (Kant, G. J., Pharmacol. Biochem. Behav. [1993] 44:287-295) approximately 120 days after the MWM testing (i.e. PND 240).
The open field apparatus consisted of a 1.5 m diameter circular arena sectioned into 32 grids (16 central grids: 9 cm×9 cm; 16 peripheral grids). The open field was chosen as another environment that provided novelty while at the same time being less physiologically challenging than the previously described two water maze tasks. All rats were given a single 10 min trial in the open field arena and scored for the presence or absence of NIS-L by an experimenter blind to treatment. All testing procedures were conducted according to the guidelines of the Canadian Council on Animal Care.

[4] = tested on: Sprague Dawley rats; assay: NIS-L syndrome during Morris Water Maze (MWM) testing
Procedure: Within 24 hr of birth, offspring of untimed-pregnant Sprague Dawley rats (Charles River Laboratories, St. Constant, PQ) were culled to 10 pups/litter (5 males and 5 females). […] These doses are well below those normally required to induce toxicity in animals of this age (Doucette, T. A. et al., Neurotox. Teratol. [2003] 25:473-479, and Doucette, T. A., et al., Neurotox. Teratol. [2000] 22:863-869). Pups were assessed daily until weaning (on PND 22) for overt signs of toxicity, and all pre- and post-weaning testing was conducted with the experimenter blind to treatment. All procedures were conducted in accordance with the guidelines of the Canadian Council on Animal Care. […] Rats received no additional drug treatment after PND 14. On PND 120, animals were tested for spatial learning and memory in the Morris Water Maze (MWM) (8 trials/day over 6 consecutive days), using a standard reversal procedure (McNamara, R. K. and Skelton, R. W., Brain Res. Brain Res. Rev. [1993] 18:33-49). While on the escape platform during the 60 second inter-trial interval, a significant number of DOM-treated rats presented with abnormal behaviour characterized by a combination of hunched body posture, facial clonus, mastication with tongue-protrusion, repetitive head extensions and bobbing, repetitive eye blinking/squinting, and vibrissae and ear twitching, often in combination with forelimb clonus. Presentation of all of the above behaviours was termed “novelty-induced seizure-like (NIS-L) syndrome”. Of note, the expression of this syndrome was not consequent to earlier drug-induced toxicity or seizures, nor was it spontaneous.
The Morris Water Maze (MWM) consisted of a circular tank measuring 1.5 m in diameter. Water temperature was maintained at approximately 21° C. and was made opaque by a layer of polypropylene pellets floated on the surface. Four points around the edge of the pool were arbitrarily designated as north (N), south (S), east (E), and west (W), allowing the apparatus to be divided into 4 corresponding quadrants (NE, SE, NW, SW). A clear plexiglass escape platform was submerged approximately 2 cm below the water surface and placed, initially, in the NE quadrant of the maze (alternate locations for the reversal task were implemented on Day 3 and Day 5). Extra-maze cues consisted of laboratory furniture and lights (held constant throughout the experiment). A video camera was mounted above the center of the pool and all performance was recorded for subsequent analyses. […] Escape latencies and inter-trial behaviour was recorded by observers blind to experimental treatment.

Structure (SMILES) | animals exhibiting NIS-L syndrome in NWM ([1]; female rats, 5 μg/kg PND 8-14) [%] | animals exhibiting NIS-L syndrome in NWM ([1]; female rats, 20 μg/kg PND 8-14) [%] | animals displaying NIS-L syndrome during NWM testing ([1]; female rats, 20 μg/kg PND 8-14) [%] | animals exhibiting NIS-L syndrome in NWM ([1]; male rats, 5 μg/kg PND 8-14) [%] | animals exhibiting NIS-L syndrome in NWM ([1]; male rats, 20 μg/kg PND 8-14) [%] | animals displaying NIS-L syndrome during NWM testing ([1]; male rats, 20 μg/kg PND 8-14) [%] | weight gain between groups [2] | signs of physical or behavioural toxicity prior to weaning ([2]; pups assessed until PND 22) | animals displaying NIS-L in open field arena ([3]; 5 μg/kg PND 8-14) [%] | animals displaying NIS-L in open field arena ([3]; 20 μg/kg PND 8-14) [%] | rats with NIS-L syndrome (study parallel in design to Example 1) ([4]; female rats, 25 μg/kg neonatally) [%] | rats with NIS-L syndrome (study parallel in design to Example 1) ([4]; female rats, 100 μg/kg neonatally) [%] | rats with NIS-L syndrome (study parallel in design to Example 1) ([4]; male rats, 25 μg/kg neonatally) [%] | rats with NIS-L syndrome (study parallel in design to Example 1) ([4]; male rats, 100 μg/kg neonatally) [%] | rats exhibiting NIS-L syndrome in open field arena ([3]; 25 μg/kg neonatally) [%] | rats exhibiting NIS-L syndrome in open field arena ([3]; 100 μg/kg neonatally) [%]
C/C(=C/C=C/[C@@H](C)C(=O)O)[C@H]1CN[C@H](C(=O)O)[C@H]1CC(=O)O [DOM, domoic acid] | 33.3 | 100 | 50 | 33.3 | 66.7 | 50 | no significant differences in weight gain | None of the pups displayed any signs of physical or behavioural toxicity | 50 | 66.7 |  |  |  |  |  | 
C=C(C)[C@H]1CN[C@H](C(=O)O)[C@H]1CC(=O)O [KA, kainic acid] |  |  |  |  |  |  |  |  |  |  | 16.7 | 57.1 | 62.5 | 62.5 | 62.5 | 33.3
